Data taken from patent publication US20240189495A1, “METHODS OF PREPARING AN EXTRACORPOREAL CIRCUIT FOR ANTICOAGULATION” (Lawell Therapeutics, LLC, priority 2021, published 2024).

How the values were obtained:
Format in all cases: physicochemical
[1] = Adsorption of nafamostat to circuit tubing, in vitro dialysis circuit without filter, HPLC; settings: for Percent of Nafamostat Remaining as a Ratio of the Starting Concentration at Time 0: tubing only, no filter
Method: A dialysis apparatus was established as described in FIG. 5 without using a filter. An experiment was conducted to determine the adsorption characteristics to the tubing. The solution was circulated through the tubing at typical CRRT flow rates of 100-300 milliliters per minute (FIG. 5). The concentration of nafamostat was measured via HPLC at 0, 5, 10 and 20 minutes. Only one reservoir of nafamostat was used. Therefore, any change in concentration represents adsorption since the molecule cannot escape the system. […] Therefore, any change in concentration can be attributed to adsorption onto the filter membrane tested.

[2] = Saturation of polyacrylonitrile filter by repeated replenishment of nafamostat solution (Example 8)
Method: To determine if a polyacrylonitrile filter can be saturated, and if so, what quantity of nafamostat would be required, an in vitro experiment was conducted wherein 632 milligrams of nafamostat were passed through the filter in the same manner as described in FIG. 5 for 20 minutes. Then the solution was replenished with an additional 632 milligrams (solution B-1), which was circulated for an additional 20 minutes, followed by replenishment with an additional 632 milligrams (solution B-2), which was circulated for an additional 20 minutes and finally replenished with an additional 379 milligrams. The total quantity of 2275 milligrams represents a three-day consumption of nafamostat at the maximum dose of 31.2 mg/h. As one can see from Table 4, nafamostat continues to adsorb to the polyacrylonitrile filter even after the entire quantity of 2275 milligrams has been delivered.

[3] = Filter membrane adsorption in in vitro dialysis circuit, HPLC; settings: for Quantity (% nafamostat free base) remaining after the initiation of priming: 500 mL; for Quantity (mcg nafamostat free base) adsorbed over time (minutes), Avg.: average of 5, 10, 20 min; for Time in which the change in concentration is complete: regardless the solution concentration
Method: A dialysis apparatus was established as described in FIG. 5 using a PS, PES, PAES, or a PAN filter. A series of experiments was conducted using various filter membranes in an in vitro model to determine the filter membrane adsorption characteristics. A solution of nafamostat was circulated through the blood and dialysate sides of the filter at typical CRRT flow rates of 100-300 milliliters per minute. The concentration of nafamostat was measured via HPLC at 0, 5, 10 and 20 minutes. Only one reservoir of nafamostat was used. Therefore, any change in concentration represents adsorption since the molecule cannot escape the system. The following filters were used: Polyethersulfone (PES) from […], part number CAR-505; Polyarylethersulfone (PAES) from Baxter, part number HF1000; Polyacrylonitrile (PAN) from Baxter, part number M100; Polysulfone (PS) from Baxter, part number F50; no filter, tubing only from Baxter, part number M100. Baxter tubing was used for all filter tests.

With `N=C(N)c1ccc2cc(OC(=O)c3ccc(N=C(N)N)cc3)ccc2c1` [Nafamostat, nafamostat] the “Percent of Nafamostat Remaining as a Ratio of the Starting Concentration at Time 0” value ([1]; 0 min) was 100%, the “Percent of Nafamostat Remaining as a Ratio of the Starting Concentration at Time 0” value ([1]; 5 min) was 100% and the “Percent of Nafamostat Remaining as a Ratio of the Starting Concentration at Time 0” value ([1]; 10 min) was 101%. The “Percent of Nafamostat Remaining as a Ratio of the Starting Concentration at Time 0” value ([1]; 20 min) was 100%, the “Adsorption onto the tubing” value ([1]; tubing used for all tests) was “does not adsorb substantially” and the “Amount of Nafamostat Remaining as a Ratio of the Starting Concentration at Time 0” value ([2]; Example 8, Solution A 632 mg, 0 min) was 99.2%. For the same molecule, the “Amount of Nafamostat Remaining as a Ratio of the Starting Concentration at Time 0” value ([2]; Example 8, Solution A 632 mg, 5 min) was 8.5%, the “Amount of Nafamostat Remaining as a Ratio of the Starting Concentration at Time 0” value ([2]; Example 8, Solution A 632 mg, 10 min) was 0.8% and the “Amount of Nafamostat Remaining as a Ratio of the Starting Concentration at Time 0” value ([2]; Example 8, Solution A 632 mg, 20 min) was 0.0%. The “Amount of Nafamostat Remaining as a Ratio of the Starting Concentration at Time 0” value ([2]; Example 8, Solution B-1, added 632 mg, 0 min) was 100.0%, the “Amount of Nafamostat Remaining as a Ratio of the Starting Concentration at Time 0” value ([2]; Example 8, Solution B-1, added 632 mg, 5 min) was 14.6% and the “Amount of Nafamostat Remaining as a Ratio of the Starting Concentration at Time 0” value ([2]; Example 8, Solution B-1, added 632 mg, 10 min) was 6.2%. The “Amount of Nafamostat Remaining as a Ratio of the Starting Concentration at Time 0” value ([2]; Example 8, Solution B-1, added 632 mg, 20 min) was 3.1%, the “Amount of Nafamostat Remaining as a Ratio of the Starting Concentration at Time 0” value ([2]; Example 8, Solution B-2, added 632 mg, 0 min) was 100.0% and the “Amount of Nafamostat Remaining as a Ratio of the Starting Concentration at Time 0” value ([2]; Example 8, Solution B-2, added 632 mg, 5 min) was 20.0%. For the same molecule, the “Amount of Nafamostat Remaining as a Ratio of the Starting Concentration at Time 0” value ([2]; Example 8, Solution B-2, added 632 mg, 10 min) was 14.6%, the “Amount of Nafamostat Remaining as a Ratio of the Starting Concentration at Time 0” value ([2]; Example 8, Solution B-2, added 632 mg, 20 min) was 10.8% and the “Amount of Nafamostat Remaining as a Ratio of the Starting Concentration at Time 0” value ([2]; Example 8, Solution B-3, added 379 mg, 0 min) was 100.0%. The “Amount of Nafamostat Remaining as a Ratio of the Starting Concentration at Time 0” value ([2]; Example 8, Solution B-3, added 379 mg, 5 min) was 20.8%, the “Amount of Nafamostat Remaining as a Ratio of the Starting Concentration at Time 0” value ([2]; Example 8, Solution B-3, added 379 mg, 10 min) was 19.2% and the “Amount of Nafamostat Remaining as a Ratio of the Starting Concentration at Time 0” value ([2]; Example 8, Solution B-3, added 379 mg, 20 min) was 17.7%. For the same molecule, the “Saturation of the PAN filter with nafamostat” value ([2]; total quantity of 2275 milligrams delivered) was “cannot be saturated”, the “Quantity (% nafamostat free base) remaining after the initiation of priming” value ([3]; Example 2, PS F50, 158 mcg/mL, 0 min) was 100% and the “Quantity (% nafamostat free base) remaining after the initiation of priming” value ([3]; Example 2, PS F50, 158 mcg/mL, 5 min) was 96.7%. For the same molecule, the “Quantity (% nafamostat free base) remaining after the initiation of priming” value ([3]; Example 2, PS F50, 158 mcg/mL, 10 min) was 96.8%, the “Quantity (% nafamostat free base) remaining after the initiation of priming” value ([3]; Example 2, PS F50, 158 mcg/mL, 20 min) was 97.2% and the “Quantity (mcg nafamostat free base) adsorbed over time (minutes)” value ([3]; Example 2, PS F50, prime quantity 79,000 mcg, 5 min) was 2,620 mcg. The “Quantity (mcg nafamostat free base) adsorbed over time (minutes)” value ([3]; Example 2, PS F50, prime quantity 79,000 mcg, 10 min) was 2,559 mcg, the “Quantity (mcg nafamostat free base) adsorbed over time (minutes)” value ([3]; Example 2, PS F50, prime quantity 79,000 mcg, 20 min) was 2,222 mcg and the “Quantity (mcg nafamostat free base) adsorbed over time (minutes), Avg.” value ([3]; Example 2, PS F50, prime quantity 79,000 mcg) was 2,467 mcg. For the same molecule, the “Quantity (% nafamostat free base) remaining after the initiation of priming” value ([3]; Example 3, PES CAR-505, 158 mcg/mL, 0 min) was 100%, the “Quantity (% nafamostat free base) remaining after the initiation of priming” value ([3]; Example 3, PES CAR-505, 158 mcg/mL, 5 min) was 95.6% and the “Quantity (% nafamostat free base) remaining after the initiation of priming” value ([3]; Example 3, PES CAR-505, 158 mcg/mL, 10 min) was 95.6%. The “Quantity (% nafamostat free base) remaining after the initiation of priming” value ([3]; Example 3, PES CAR-505, 158 mcg/mL, 20 min) was 95.6%, the “Quantity (mcg nafamostat free base) adsorbed over time (minutes)” value ([3]; Example 3, PES CAR-505, prime quantity 79,000 mcg, 5 min) was 3,555 mcg and the “Quantity (mcg nafamostat free base) adsorbed over time (minutes)” value ([3]; Example 3, PES CAR-505, prime quantity 79,000 mcg, 10 min) was 3,555 mcg. For the same molecule, the “Quantity (mcg nafamostat free base) adsorbed over time (minutes)” value ([3]; Example 3, PES CAR-505, prime quantity 79,000 mcg, 20 min) was 3,555 mcg, the “Quantity (mcg nafamostat free base) adsorbed over time (minutes), Avg.” value ([3]; Example 3, PES CAR-505, prime quantity 79,000 mcg) was 3,555 mcg and the “Quantity (% nafamostat free base) remaining after the initiation of priming” value ([3]; Example 4, PAES HF1000, 158 mcg/mL, 0 min) was 100%. For the same molecule, the “Quantity (% nafamostat free base) remaining after the initiation of priming” value ([3]; Example 4, PAES HF1000, 158 mcg/mL, 5 min) was 96.9%, the “Quantity (% nafamostat free base) remaining after the initiation of priming” value ([3]; Example 4, PAES HF1000, 158 mcg/mL, 10 min) was 97.2% and the “Quantity (% nafamostat free base) remaining after the initiation of priming” value ([3]; Example 4, PAES HF1000, 158 mcg/mL, 20 min) was 97.1%. The “Quantity (mcg nafamostat free base) adsorbed over time (minutes)” value ([3]; Example 4, PAES HF1000, prime quantity 79,000 mcg, 5 min) was 2,446 mcg, the “Quantity (mcg nafamostat free base) adsorbed over time (minutes)” value ([3]; Example 4, PAES HF1000, prime quantity 79,000 mcg, 10 min) was 2,184 mcg and the “Quantity (mcg nafamostat free base) adsorbed over time (minutes)” value ([3]; Example 4, PAES HF1000, prime quantity 79,000 mcg, 20 min) was 2,261 mcg. For the same molecule, the “Quantity (mcg nafamostat free base) adsorbed over time (minutes), Avg.” value ([3]; Example 4, PAES HF1000, prime quantity 79,000 mcg) was 2,297 mcg, the “Quantity (% nafamostat free base) remaining after the initiation of priming” value ([3]; Example 5, PAN M100, 158 mcg/mL, 0 min) was 98.7% and the “Quantity (% nafamostat free base) remaining after the initiation of priming” value ([3]; Example 5, PAN M100, 158 mcg/mL, 5 min) was 20.5%. The “Quantity (% nafamostat free base) remaining after the initiation of priming” value ([3]; Example 5, PAN M100, 158 mcg/mL, 10 min) was 4.3%, the “Quantity (% nafamostat free base) remaining after the initiation of priming” value ([3]; Example 5, PAN M100, 158 mcg/mL, 20 min) was 0.3% and the “Quantity (mcg nafamostat free base) adsorbed over time (minutes)” value ([3]; Example 5, PAN M100, prime quantity 79,000 mcg, 5 min) was 61,770 mcg. For the same molecule, the “Quantity (mcg nafamostat free base) adsorbed over time (minutes)” value ([3]; Example 5, PAN M100, prime quantity 79,000 mcg, 10 min) was 74,594 mcg, the “Quantity (mcg nafamostat free base) adsorbed over time (minutes)” value ([3]; Example 5, PAN M100, prime quantity 79,000 mcg, 20 min) was 77,732 mcg and the “Quantity (mcg nafamostat free base) adsorbed over time (minutes), Avg.” value ([3]; Example 5, PAN M100, prime quantity 79,000 mcg) was 71,365 mcg. For the same molecule, the “Quantity (% nafamostat free base) remaining after the initiation of priming” value ([3]; Example 6, PAN M100, 316 mcg/mL, 0 min) was 99.5%, the “Quantity (% nafamostat free base) remaining after the initiation of priming” value ([3]; Example 6, PAN M100, 316 mcg/mL, 5 min) was 20.4% and the “Quantity (% nafamostat free base) remaining after the initiation of priming” value ([3]; Example 6, PAN M100, 316 mcg/mL, 10 min) was 4.3%. For the same molecule, the “Quantity (% nafamostat free base) remaining after the initiation of priming” value ([3]; Example 6, PAN M100, 316 mcg/mL, 20 min) was 0.4%, the “Quantity (mcg nafamostat free base) adsorbed over time (minutes)” value ([3]; Example 6, PAN M100, prime quantity 158,000 mcg, 5 min) was 124,946 mcg and the “Quantity (mcg nafamostat free base) adsorbed over time (minutes)” value ([3]; Example 6, PAN M100, prime quantity 158,000 mcg, 10 min) was 150,288 mcg. The “Quantity (mcg nafamostat free base) adsorbed over time (minutes)” value ([3]; Example 6, PAN M100, prime quantity 158,000 mcg, 20 min) was 156,502 mcg, the “Quantity (mcg nafamostat free base) adsorbed over time (minutes), Avg.” value ([3]; Example 6, PAN M100, prime quantity 158,000 mcg) was 143,912 mcg and the “Quantity (% nafamostat free base) remaining after the initiation of priming” value ([3]; Example 7, PAN M100, 632 mcg/mL, 0 min) was 99.1%. The “Quantity (% nafamostat free base) remaining after the initiation of priming” value ([3]; Example 7, PAN M100, 632 mcg/mL, 5 min) was 17.4%, the “Quantity (% nafamostat free base) remaining after the initiation of priming” value ([3]; Example 7, PAN M100, 632 mcg/mL, 10 min) was 2.7% and the “Quantity (% nafamostat free base) remaining after the initiation of priming” value ([3]; Example 7, PAN M100, 632 mcg/mL, 20 min) was 0.04%. For the same molecule, the “Quantity (mcg nafamostat free base) adsorbed over time (minutes)” value ([3]; Example 7, PAN M100, prime quantity 316,000 mcg, 5 min) was 258,314 mcg, the “Quantity (mcg nafamostat free base) adsorbed over time (minutes)” value ([3]; Example 7, PAN M100, prime quantity 316,000 mcg, 10 min) was 304,629 mcg and the “Quantity (mcg nafamostat free base) adsorbed over time (minutes)” value ([3]; Example 7, PAN M100, prime quantity 316,000 mcg, 20 min) was 313,065 mcg. For the same molecule, the “Quantity (mcg nafamostat free base) adsorbed over time (minutes), Avg.” value ([3]; Example 7, PAN M100, prime quantity 316,000 mcg) was 292,003 mcg, the “Time in which the change in concentration is complete” value (from here on “Time in which the change”) ([3]; non-PAN filter (PAES)) was at most 5 min and the “Time in which the change” value ([3]; non-PAN filter (PES)) was at most 5 min. The “Time in which the change” value ([3]; non-PAN filter (PS)) was at most 5 min, the “Change in concentration in the PAN filters” value (shortened to “Change … in the PAN filters”) ([3]; within the first 5 minutes) was 80% and the “Change … in the PAN filters” value ([3]; within the first 10 minutes) was 95%. For the same molecule, the “Change … in the PAN filters” value ([3]; within the first 15 minutes) was 99% and the “Change … in the PAN filters” value ([3]; within the first 20 minutes) was 99.5%.
